Assay results taken from paper PMC8129719 (CPT: Pharmacometrics & Systems Pharmacology, 2021).
Values joined by “and” are separate entries in the source; they are usually repeats but may differ in a detail not shown here. Identical values can stand only once. Counter-ions that a name gives are not always drawn. Like-named read-outs stand apart in the source and are kept apart here.

Assays:
[1] = format: in vivo, human; conditions: for CL renal: female, human, plasma and urine, oral; for contribution of renal elimination to total clearance: from model CLr and CLnr; for CLr, IIV (SE%) / k syn, IIV (SE%): interindividual variability; for CLnr, population estimate (SE%): nonrenal clearance of biomarker; for V, population estimate (SE%): volume of distribution of biomarker; for k syn, population estimate (SE%): zero-order synthesis rate
[2] = probenecid 500 mg 4 times a day; ref Willemin et al. (accepted for publication); cited from earlier work
[3] = probenecid 1000 mg single dose, 14 healthy volunteers, digitized data; cited from earlier work
[4] = Population PK model of probenecid plasma data; format: in vivo, human; conditions: for CL, IIV (SE%) / V, IIV (SE%): interindividual variability

CL renal [1] [mL/min] | contribution of renal elimination to total clearance [1] [%] | CLr, IIV (SE%) [1] | k syn, IIV (SE%) [1] | k syn, IOV (SE%) ([1]; interoccasion variability between the two phases) | CLnr, population estimate (SE%) [1] | V, population estimate (SE%) [1] | k syn, population estimate (SE%) [1] | CLr, IOV (SE%) ([1]; interoccasion variability) | ka, population estimate (SE%) ([4]; absorption rate constant) | CL, IIV (SE%) [4] | V, IIV (SE%) [4] | CL, IIV (SE%) ([4]; listed as probenecid) [%] | V, IIV (SE%) ([4]; listed as probenecid) [%] | V, population estimate (SE%) ([4]; probenecid one-compartment model) | Structure (SMILES) | fold change of plasma AUC0-24 h following probenecid [2] [fold] | mean plasma AUC0-tlast ratio, observed [3]
253 | 82 | 27% and 27 (15) % | 32% and 32 (34) % | 22 (57) % | 3.23 (41) L/h | 9.34 (56) L | 58.6 (26) µg/h | – | – | – | – | – | – | – | Cc1ncc(CO)c(C(=O)O)c1O [PDA, Pyridoxic acid] | 3.9 | 1.95
340 | 94 | 23 (26) % | 27 (19) % | – | 1.29 (69) L/h | 105 (35) L | 212 (16) µg/h | 5 (48) % | – | – | – | – | – | – | COc1cc(CC(=O)O)ccc1O [HVA, homovanillic acid] | 2.2 | –
– | – | – | – | – | – | – | – | – | – | – | – | – | – | – | C[C@H](CCC(=O)NCC(=O)O)[C@H]1CC[C@H]2[C@@H]3[C@H](O)C[C@@H]4C[C@H](OS(=O)(=O)O)CC[C@]4(C)[C@H]3CC[C@]12C [GCDCA-S, glycochenodeoxycholate sulfate] | 1.9 | –
– | – | – | – | – | – | – | – | – | 0.74 (45) /h | 23 (23) % | 40 (29) % | 23 | 40 | 15 (22) L | CCCN(CCC)S(=O)(=O)c1ccc(C(=O)O)cc1 [Probenecid, probenecid] | – | –
